{"source": "patent US6159940A", "about": "“Method for modulating hemopoiesis” (Immunotech Developments Inc., priority 1999, dated 2000)", "key": {"[1]": {"tested_on": "CFU-S", "experiment": "Endogenous spleen colonies in irradiated mice (6 Gy)", "format": "in vivo", "conditions": "10 μg/kg IM, Day 9", "method": "Test mice were irradiated in the dose of 6 Gy Beginning from the first hour after the irradiation, the mice received once daily IM injections of 10 μg/kg H-Ile-Glu-Trp-OH. Injections were made 1, 2, 3, or 4 times. The mice were killed on Day 9, spleens were taken out and fixed in Buene's solution, the colonies were counted. 110 mice were used in the test."}, "[2]": {"experiment": "Chronic toxicity: peritheric blood and internals, 30 days, rabbits", "format": "in vivo", "conditions": "once daily for 30 days", "method": "II.1 The H-Ile-Glu-Trp-OH effect on the composition and properties of the peritheric blood, the morphological state of the internals.\nThe drug was injected once daily for 30 days.\nThe test animals were 20 rabbits and 40 guinea pigs."}, "[3]": {"experiment": "Acute toxicity in mice", "format": "in vivo", "method": "An acute toxicity study of the peptide was carried out in compliance with methodical recommendations of the Pharmacological Committee of the Russian Federation (RF), \"Requirements to Preclinical Study of General Toxic Action of New Pharmacological Substances\", M., 1985.\nTo establish the safety of use of the peptides, toxicity tests were performed. Toxicity tests where performed in accordance Pharmacological Committee Russian Federation (RF) \"guidelines for the pre-clinical study of general toxic activity of new pharmacological compounds\". M., 1985.\nAcute toxicity was studied in 120 mice (60 males, 60 females). Ld50 was not reached with the dose 10000 times as high as the therapeutic one. The preferred therapeutic dose is 0.001-0.1 mg/kg."}, "[4]": {"tested_on": "mixed lymphocyte culture (H-2d anti H-2b)", "experiment": "Proliferation of mixed lymphocyte culture (MLC), 3H-thymidine", "format": "cell-based", "method": "This experimental system is an in vitro the analog of the Graft Versus Host Disease reaction.\nIn the present series of experiments the reaction H-2d, anti H-2b was examined. The new combination responder-stimulator. Each variant was made in a triplet. Microcultures were incubated for 4 days, then 3H-thymidine was added; then the mixture was incubated for 16 more hours, and after its transfer to the filters, the amount of 3H-thymidine was determined. H-Ile-Glu-Trp-OH was added at the beginning of the incubation in different concentrations."}, "[5]": {"experiment": "Chronic toxicity, general state and pathomorphologic investigation", "format": "in vivo", "from_the_text": "The general state of the animals, behaviour, motor function, cardio-vascular, respiratory activity, liver and kidney functions were within the range of physiologic fluctuations."}, "[6]": {"experiment": "Solubility", "format": "physicochemical", "from_the_text": "The peptide prepared using this process is a yellowish grey or white powder, soluble in water, substantially insoluble in alcohol and substantially insoluble in chloroform. It has a UV spectrum in the range of 250-300 nm with a maximum at 280±2 nm."}, "[7]": {"experiment": "Effect on kidney function (anti-diuretic activity)", "set-up": "species or system white mice", "conditions": "mouse, in vivo", "from_the_text": "The anti-diuretic activity of H-Ile-Glu-Trp-OH was studied in 40 white mice."}, "[8]": {"experiment": "Toxicity study: single 0.15 g/kg or 10 μg/kg for 5 days, cellular systems on day 14", "format": "in vivo, male mice", "method": "To determine the peptide toxicity, male mice received single injections of the peptide in the dose of 0.15 g per kg body weight, which was 15,000 times as large as the therapeutic dose with favourable effect in post-irradiation regeneration of hemopoietic progenitors. The second group of mice received daily peptide injections in the dose of 10 μg/kg (the therapeutical dose) for 5 days. […] On the 14-th day after the peptide injection 10 mice from each group were killed to determine the condition of their cellular systems. Nucleated cells were counted in spleen and thymus (per mg of organ weight), bone marrow, blood (per ml). Erythrocyte count and hemoglobin level were determined."}, "[9]": {"tested_on": "Thymoma EL-4 cells", "experiment": "Thymoma EL-4 cells incubated with peptide and oxyurea, transplanted to mice: tumor growth and survival", "format": "in vivo, C57B1 mice", "method": "The Thymoma EL-4 cells were extracted from the abdomen cavity of C57B1 mice at the 7th day after transplantation. The suspension was washed by centrifugation in the medium RPMI. Then the cells were resuspended in the growth medium (RPMI+10% of embryo serum+0.1% penicillin/streptomycin) and were split in culture flasks 5 ml each ([…] per flask). 2 mg of the preparation were added (20 μl) to each probe. After 18 hours of incubation (37 degrees Celsius CO2), OU was added to the half of probes (1 mg per 5 ml). Incubation was done for 1 more hour in the same conditions and then cells were washed out by centrifugation in the medium RPMI. The precipitated cells were resuspended in calculation 1 ml per 0.2 ml of RPMI medium and then transplanted to the mice C57B1 under the back skin.\nThe taking of the measurements of the size of the tumor was started after the knot became visible. The tumor was measured every day until it was impossible to measure. The survival ability of the mice was examined during 60 days after transplantation. Mice that survived after this period were considered to be cured. Each experimental group consisted of 6 animals."}, "[10]": {"tested_on": "hemopoietic progenitor cells", "experiment": "Exogenous spleen colonies from irradiated bone marrow cells", "format": "in vivo, mice", "conditions": "day 9", "method": "For this purpose, known methods using exogenous spleen colonies were applied. […] Different doses of the peptide were injected intravenously (i.v.), intraperitoneally (i.p.), or intramuscularly (i.m.) to lethally irradiated recipients an hour after the injections of irradiated bone marrow. Colonies were counted on day 9. 350 mice were used as test animals. The data for each group are the average of three tests."}, "[11]": {"conditions": "10 mcg/kg × 5 injections, day 14"}, "[12]": {"conditions": "60 days after transplantation of treated EL-4 cells"}}, "data": [{"substance": "H-Ile-Glu-Trp-OH", "values": [{"measurement": "Colony (endogenous spleen colonies)", "setting": "[1]; 1 times", "value": "3.3 ± 0.6"}, {"measurement": "Colony (endogenous spleen colonies)", "setting": "[1]; 2 times", "value": "4.4 ± 0.5"}, {"measurement": "Colony (endogenous spleen colonies)", "setting": "[1]; 3 times", "value": "5.0 ± 0.7"}, {"measurement": "Colony (endogenous spleen colonies)", "setting": "[1]; 4 times", "value": "5.2 ± 0.8"}, {"measurement": "pathologic changes in the body or peritheric blood", "setting": "[2]", "value": "did not cause any pathologic changes"}, {"measurement": "Ld50", "setting": "[3]; 120 mice", "value": "> 10000 times as high as the therapeutic one"}, {"measurement": "acute toxic effect", "setting": "[3]; intraperitoneal injection of a 10,000-fold dose", "value": "did not cause an acute toxic effect"}, {"measurement": "proliferation of the allogenic lymphocytes", "setting": "[4]; 0.1 μg/ml (FIG. 4)", "value": "negligible inhibition of the proliferation"}, {"measurement": "proliferation of the allogenic lymphocytes", "setting": "[4]; 1, 10, and 20 μg/ml (FIG. 4)", "value": "stimulation of proliferation"}, {"measurement": "pathomorphologic investigation (with histologic investigation of organs)", "setting": "[5]; chronic toxicity", "value": "failed to find any pathologic processes"}, {"measurement": "side effects", "setting": "[5]; doses 10-100 times as large as the therapeutic ones", "value": "no side effects were observed"}, {"measurement": "Solubility", "setting": "[6]; alcohol", "value": "moderately soluble"}, {"measurement": "Solubility", "setting": "[6]; chloroform", "value": "insoluble"}, {"measurement": "Solubility", "setting": "[6]; water", "value": "readily soluble"}, {"measurement": "anti-diuretic activity", "setting": "[7]", "value": "not to have any anti-diuretic activity"}, {"measurement": "Survival for 30 days", "setting": "[8]; 10 μg/kg daily for 5 days", "value": "Not an animal died"}, {"measurement": "Karyocyte Count, Spleen", "setting": "[8]; 0.15 g/kg, day 14", "value": "2280 ± 30 10^3 /mg"}, {"measurement": "Karyocyte Count, Thymus", "setting": "[8]; 0.15 g/kg, day 14", "value": "3030 ± 250 10^3 /mg"}, {"measurement": "erythrocyte", "setting": "[8]; 0.15 g/kg, day 14", "value": "8100 ± 600 10^3"}, {"measurement": "hemoglobin", "setting": "[8]; 0.15 g/kg, day 14", "value": "10.8 ± 0.7", "unit": "g/dL"}, {"measurement": "karyocyte count bone marrow", "setting": "[8]; 0.15 g/kg, day 14", "value": "2.39 ± 0.25 × 10^7 /femur"}, {"measurement": "karyocytes %", "setting": "[8]; 0.15 g/kg, day 14", "value": "62.0 ± 3.4", "unit": "%"}, {"measurement": "karyocytes (blood)", "setting": "[8]; 0.15 g/kg, day 14", "value": "5.4 ± 0.7 10^3"}, {"measurement": "karyocytes absolute", "setting": "[8]; 0.15 g/kg, day 14", "value": 3348}, {"measurement": "weight", "setting": "[8]; 0.15 g/kg, day 14", "value": "21-22.0"}, {"measurement": "Karyocyte Count, Spleen", "setting": "[8]; [11]", "value": "1760 ± 100 10^3 /mg"}, {"measurement": "Karyocyte Count, Thymus", "setting": "[8]; [11]", "value": "2780 ± 340 10^3 /mg"}, {"measurement": "erythrocyte", "setting": "[8]; [11]", "value": "8400 ± 200 10^3"}, {"measurement": "hemoglobin", "setting": "[8]; [11]", "value": "11.5 ± 0.2", "unit": "g/dL"}, {"measurement": "karyocyte count bone marrow", "setting": "[8]; [11]", "value": "1.94 ± 0.2 × 10^7 /femur"}, {"measurement": "karyocytes %", "setting": "[8]; [11]", "value": "58.6 ± 3.6", "unit": "%"}, {"measurement": "karyocytes (blood)", "setting": "[8]; [11]", "value": "10.1 ± 0.8 10^3"}, {"measurement": "weight", "setting": "[8]; [11]", "value": "21-22.5"}, {"measurement": "LD50", "setting": "[8]; not found", "value": "> 15,000 as large as the therapeutical one"}, {"measurement": "growth of average weight by the end of the study", "setting": "[8]; same as in control", "value": 2, "unit": "g"}, {"measurement": "Survival for 30 days", "setting": "[8]; single injection 0.15 g per kg", "value": "Not an animal died"}, {"measurement": "% of Survival", "setting": "[9]; [12]", "value": 16.6, "unit": "%"}, {"measurement": "Number of Survived Mice From 6", "setting": "[9]; [12]", "value": "1/6"}, {"measurement": "extension of lifetime in combination with cytostatics", "setting": "[9]; mice with Thymoma EL-4", "value": 15, "unit": "days"}, {"measurement": "increase in lifetime versus control", "setting": "[9]; mice with Thymoma EL-4", "value": 4, "unit": "days"}, {"measurement": "tumor growth", "setting": "[9]; thymoma cells incubated with H-Ile-Glu-Trp-OH, then OU", "value": "depression of the tumor growth on the 12th day is most definite"}, {"measurement": "Colony Count", "setting": "[10]; bone marrow 1 Gy, 2.5 mcg/Kg i.v.", "value": "6.0 ± 0.7"}, {"measurement": "Colony Count", "setting": "[10]; bone marrow 1 Gy, 10 mcg/Kg i.m.", "value": "10.6 ± 0.8"}, {"measurement": "Colony Count", "setting": "[10]; bone marrow 1 Gy, 10 mcg/Kg i.p.", "value": "8.2 ± 0.7"}, {"measurement": "Colony Count", "setting": "[10]; bone marrow 1 Gy, 10 mcg/Kg i.v.", "value": "8.7 ± 0.4"}, {"measurement": "Colony Count", "setting": "[10]; bone marrow 1 Gy, 25 mcg/Kg i.v.", "value": "7.6 ± 0.4"}, {"measurement": "Colony Count", "setting": "[10]; bone marrow 1 Gy, 50 mcg/Kg i.v.", "value": "7.1 ± 0.5"}, {"measurement": "Colony Count", "setting": "[10]; bone marrow 1 Gy, 100 mcg/Kg i.v.", "value": "6.0 ± 0.5"}, {"measurement": "Colony Count", "setting": "[10]; bone marrow 1 Gy, 200 mcg/Kg i.v.", "value": "5.3 ± 0.7"}, {"measurement": "Colony Count", "setting": "[10]; bone marrow 1 Gy, 500 mcg/Kg i.v.", "value": "4.2 ± 0.3"}, {"measurement": "Colony Count", "setting": "[10]; bone marrow 3 Gy, 10 mcg/Kg i.v.", "value": "2.3 ± 0.3"}]}]}
